Patent US20260216144A1, “TARGETING MB2 OF THE MYC ONCOGENE AND ITS INTERACTION WITH TRRAP IN CANCER” (priority 2019, published 2026)

Experiments:
[1] = target: T1, endogenous MYC:TRRAP complex (Homo sapiens, UniProt P01106+Q9Y4A5); assay: co-IP of the endogenous MYC:TRRAP complex from HeLa cells incubated with compounds; assay type: cell-based; conditions: for inhibition of MYC:TRRAP complex formation: luminescence assay and co-IP assay, compared to DMSO vehicle control, FIG. 24A
T1 construct: immunoprecipitation experiments using endogenous full length MYC and TRRAP
Procedure: FIGS. 23A-23B show the results of co-IP assay experiments comparing the top 17 hits in immunoprecipitation experiments using endogenous full length MYC and TRRAP. In these experiments immunocomplexes were immunoprecipitated with anti-MYC beads in the presence of 25 μM of each of the 17 top compounds. Experiments were carried out in cells (compounds were added to the media of cells) (FIG. 23B) or in vitro (compounds were added directly to the purified complex on pre-washed beads) (FIG. 23A). Immunoprecipitation of TRRAP was normalized to the immunoprecipitation of MYC.
The indicated TRRAP constructs were cloned into a CMV-driven plasmid containing an N-terminal FLAG tag as previously described (23). Full-length wild-type (WT) MYC and MYC ΔMB2 (A129-145), and the indicated MYC constructs were cloned into the same CMV-driven plasmid but containing a Glu-Glu (PYO) tag instead. HEK293T cells were co-transfected with equal amounts of each plasmid using LipoD293™ In vitro DNA Transfection Reagent per protocol (SignaGen). Cells were plated subconfluently 16-20 hours prior to transfection. After 24 hours, cells were lysed in F-buffer (10 mM TRIS pH 7.5, 50 mM NaCl, 30 mM sodium pyrophosphate, […], 10% glycerol, 1% Triton-X, 50 mM NaF) supplemented with 1 mM PMSF, 10 μM Leupeptin, 10 μM Pepstatin-A, and 10 μg/mL Aprotinin for immunoprecipitations and co-immunoprecipitations. Immunoprecipitations were performed using anti-FLAG (Sigma Aldrich), anti-PYO (Covance), or anti-MYC (C33 Santa Cruz Biotechnology) agarose preconjugated beads. Co-immunoprecipitation was analyzed by western blots with the following antibodies: MYC (sc-764 Santa Cruz Biotechnology), TRRAP (A301-132A Bethel Laboratories), FLAG (F7425 Sigma Aldrich), and PYO (Covance).
Co-IP experiments of the endogenous MYC:TRRAP complex were carried out to validate the results from the MYC:TRRAP in-cell luminescence complementation screen performed. HeLa cells were again subjected to the effects of incubation with each of the 17 compounds from FIG. 16 for 2 h before analysis. FIG. 19, FIG. 20, and FIG. 21 present the effects of these compounds on the endogenous MYC:TRRAP and MYC:MAX complexes. Like before, all compounds except for 7 and 11 had no effect on the levels of MYC or TRRAP. […] Incubation with some of the compounds that scored positive by the in-cell luminescence complementation screen had the predicted effect on the endogenous MYC:TRRAP complex. This validates the preliminary compound screen and presents the completion of a major milestone in the effort to therapeutically target MYC in cancer.

MYC:TRRAP interaction = MYC:TRRAP interaction (Homo sapiens, UniProt P01106+Q9Y4A5); assay: MYC:TRRAP in-cell luminescence complementation assay (NanoBiT; SmB-MYC 1-190 and TRRAP 2033-2283-LgB in HeLa cells); assay type: cell-based
Procedure: HeLa cells plated on Greiner 96-well TC-rated white plates with clear bottoms were used for the following measurements. Reverse transfections were carried out using LipoD293™ before cells were plated. A bluescript KS' plasmid (Addgene) was used as carrier DNA for transfections, and a pcDNA3.1 EGFP plasmid (ThermoFisher) was used as a fluorescence reporter. White light-reflecting film (USA Scientific) was used to cover the bottom of the plates for luminescence measurements. Black light-absorbing film was used to cover the top of the plates for fluorescence measurements. All measurements were taken on a SpectraMax i3 instrument (Molecular Devices).
Transfections were carried out with increasing DNA amounts (1-100 ng per well) of a CMV-driven LgB plasmid and SmB in excess or vice-versa. Background luminesce for the usable range and the amount of DNA needed for vast excess of LgB or SmB were noted. Next, complementation with vast excess either LgB or SmB was used to determine the expression of each of the indicated MYC and TRRAP constructs for a range of DNA amounts per well: 10-100 ng. An optimal ratio of DNA to equalize the expression of each MYC and TRRAP pair was calculated. Then, signal-to-noise ratios were calculated for the indicated MYC and TRRAP pairs, and the pair with the highest ratio was chosen. Finally, the chosen pair was used to determine the optimal DNA transfection mixture. It was determined to be 6.7 ng of a plasmid with a MYC construct, 60 ng of a plasmid with a TRRAP construct and 33.3 ng of the pcDNA 3.1 EGFP plasmid, for each well in a 96-well plate. Unless otherwise indicated, these were the ratios of DNA transfected for this type of assay.
HeLa cells were transfected as above using LipoD293™ with a mixture of SmB-MYC 1-190, TRRAP 2033-2283-LgB, and EGFP in CMV-driven plasmids at the same optimized ratio described above. Two days post-transfection, the media in each well was replaced with fresh media containing each compound from the NCI's sets at 25 μM. Cells were incubated for 2 h with each compound, and luminescence and fluorescence measurements were recorded for each well. Changes in luminescence were normalized to fluorescence. The following pre-plated compound sets were obtained from the NCI/DTP chemical repository and used for this screen:
These chemical sets were used to discover novel small-molecule inhibitors of the MYC:TRRAP complex. SmB-MYC 1-190, TRRAP 2033-2283-LgB, and EGFP were transfected into HeLa cells. Two days post-transfection, compounds were added to the media at 25 μM and cells were incubated for 2h. Luminescence and fluorescence were recorded for each well containing one of the compounds. Changes in luminescence measurements were normalized to fluorescence measurements.
Afterwards, only molecules that reduced luminescence levels to <50% RLU were considered. This set of 46 compounds were incubated at 10 μM with vector-expressing cells. Luminescence complementation was measured and repeated in triplicate measurements. In addition, HeLa cells expressing LgB and SmB alone were incubated with the same compounds to rule out potentially artificial results due to inhibition of luciferase or its complementation. Molecules that induces any significant reduction in luminescence (<0.6) during this control assay were not considered further. Of 2947 molecules, 17 were chosen for further testing and ordered from the NCI/DTP Open Chemical Repository. FIG. 16 describes these chosen compounds.
Using the luminescence assay above as a readout for the MYC:TRRAP interaction, we used a robotic liquid handler to evaluate 2987 additional compounds (25 μM). All primary hits were counter-screened for any activity against the luciferase enzyme itself and for any effects on the expression of the fusion proteins. We set a threshold of 50% inhibition to consider compounds further. Only 17 out of 2987 passed all these criteria (0.6%). […]

[2] = Table 2, compounds with >80% similarity to compound 10 (NSC657456), 10 uM

MYC:TRRAP interaction, sequence (P01106 16-205): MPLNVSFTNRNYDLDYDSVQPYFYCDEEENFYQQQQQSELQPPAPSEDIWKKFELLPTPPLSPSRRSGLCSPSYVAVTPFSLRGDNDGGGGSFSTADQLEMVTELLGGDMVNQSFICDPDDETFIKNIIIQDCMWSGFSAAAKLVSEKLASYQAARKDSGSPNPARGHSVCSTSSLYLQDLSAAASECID
MYC:TRRAP interaction, sequence (Q9Y4A5 2051-2301): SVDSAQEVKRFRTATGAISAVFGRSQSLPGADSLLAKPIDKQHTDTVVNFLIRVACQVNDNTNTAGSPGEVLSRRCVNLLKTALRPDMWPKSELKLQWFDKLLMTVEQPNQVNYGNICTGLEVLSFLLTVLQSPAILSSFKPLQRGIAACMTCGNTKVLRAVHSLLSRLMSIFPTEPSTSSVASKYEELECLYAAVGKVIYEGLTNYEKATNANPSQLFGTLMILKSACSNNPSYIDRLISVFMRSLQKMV
T1 sequence (P01106 16-454): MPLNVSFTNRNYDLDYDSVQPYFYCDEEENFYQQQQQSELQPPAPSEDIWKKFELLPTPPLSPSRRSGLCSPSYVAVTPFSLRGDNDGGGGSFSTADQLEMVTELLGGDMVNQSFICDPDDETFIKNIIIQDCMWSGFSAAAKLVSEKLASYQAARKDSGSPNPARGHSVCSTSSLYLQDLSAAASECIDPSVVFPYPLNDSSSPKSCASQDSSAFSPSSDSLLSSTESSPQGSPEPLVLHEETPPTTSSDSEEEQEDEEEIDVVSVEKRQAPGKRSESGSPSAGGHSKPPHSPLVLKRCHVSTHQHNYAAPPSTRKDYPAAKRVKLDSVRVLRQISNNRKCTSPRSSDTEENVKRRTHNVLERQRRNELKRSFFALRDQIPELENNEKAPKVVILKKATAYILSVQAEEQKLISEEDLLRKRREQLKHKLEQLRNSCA
T1 sequence (Q9Y4A5 1-3830 isoform Q9Y4A5-2): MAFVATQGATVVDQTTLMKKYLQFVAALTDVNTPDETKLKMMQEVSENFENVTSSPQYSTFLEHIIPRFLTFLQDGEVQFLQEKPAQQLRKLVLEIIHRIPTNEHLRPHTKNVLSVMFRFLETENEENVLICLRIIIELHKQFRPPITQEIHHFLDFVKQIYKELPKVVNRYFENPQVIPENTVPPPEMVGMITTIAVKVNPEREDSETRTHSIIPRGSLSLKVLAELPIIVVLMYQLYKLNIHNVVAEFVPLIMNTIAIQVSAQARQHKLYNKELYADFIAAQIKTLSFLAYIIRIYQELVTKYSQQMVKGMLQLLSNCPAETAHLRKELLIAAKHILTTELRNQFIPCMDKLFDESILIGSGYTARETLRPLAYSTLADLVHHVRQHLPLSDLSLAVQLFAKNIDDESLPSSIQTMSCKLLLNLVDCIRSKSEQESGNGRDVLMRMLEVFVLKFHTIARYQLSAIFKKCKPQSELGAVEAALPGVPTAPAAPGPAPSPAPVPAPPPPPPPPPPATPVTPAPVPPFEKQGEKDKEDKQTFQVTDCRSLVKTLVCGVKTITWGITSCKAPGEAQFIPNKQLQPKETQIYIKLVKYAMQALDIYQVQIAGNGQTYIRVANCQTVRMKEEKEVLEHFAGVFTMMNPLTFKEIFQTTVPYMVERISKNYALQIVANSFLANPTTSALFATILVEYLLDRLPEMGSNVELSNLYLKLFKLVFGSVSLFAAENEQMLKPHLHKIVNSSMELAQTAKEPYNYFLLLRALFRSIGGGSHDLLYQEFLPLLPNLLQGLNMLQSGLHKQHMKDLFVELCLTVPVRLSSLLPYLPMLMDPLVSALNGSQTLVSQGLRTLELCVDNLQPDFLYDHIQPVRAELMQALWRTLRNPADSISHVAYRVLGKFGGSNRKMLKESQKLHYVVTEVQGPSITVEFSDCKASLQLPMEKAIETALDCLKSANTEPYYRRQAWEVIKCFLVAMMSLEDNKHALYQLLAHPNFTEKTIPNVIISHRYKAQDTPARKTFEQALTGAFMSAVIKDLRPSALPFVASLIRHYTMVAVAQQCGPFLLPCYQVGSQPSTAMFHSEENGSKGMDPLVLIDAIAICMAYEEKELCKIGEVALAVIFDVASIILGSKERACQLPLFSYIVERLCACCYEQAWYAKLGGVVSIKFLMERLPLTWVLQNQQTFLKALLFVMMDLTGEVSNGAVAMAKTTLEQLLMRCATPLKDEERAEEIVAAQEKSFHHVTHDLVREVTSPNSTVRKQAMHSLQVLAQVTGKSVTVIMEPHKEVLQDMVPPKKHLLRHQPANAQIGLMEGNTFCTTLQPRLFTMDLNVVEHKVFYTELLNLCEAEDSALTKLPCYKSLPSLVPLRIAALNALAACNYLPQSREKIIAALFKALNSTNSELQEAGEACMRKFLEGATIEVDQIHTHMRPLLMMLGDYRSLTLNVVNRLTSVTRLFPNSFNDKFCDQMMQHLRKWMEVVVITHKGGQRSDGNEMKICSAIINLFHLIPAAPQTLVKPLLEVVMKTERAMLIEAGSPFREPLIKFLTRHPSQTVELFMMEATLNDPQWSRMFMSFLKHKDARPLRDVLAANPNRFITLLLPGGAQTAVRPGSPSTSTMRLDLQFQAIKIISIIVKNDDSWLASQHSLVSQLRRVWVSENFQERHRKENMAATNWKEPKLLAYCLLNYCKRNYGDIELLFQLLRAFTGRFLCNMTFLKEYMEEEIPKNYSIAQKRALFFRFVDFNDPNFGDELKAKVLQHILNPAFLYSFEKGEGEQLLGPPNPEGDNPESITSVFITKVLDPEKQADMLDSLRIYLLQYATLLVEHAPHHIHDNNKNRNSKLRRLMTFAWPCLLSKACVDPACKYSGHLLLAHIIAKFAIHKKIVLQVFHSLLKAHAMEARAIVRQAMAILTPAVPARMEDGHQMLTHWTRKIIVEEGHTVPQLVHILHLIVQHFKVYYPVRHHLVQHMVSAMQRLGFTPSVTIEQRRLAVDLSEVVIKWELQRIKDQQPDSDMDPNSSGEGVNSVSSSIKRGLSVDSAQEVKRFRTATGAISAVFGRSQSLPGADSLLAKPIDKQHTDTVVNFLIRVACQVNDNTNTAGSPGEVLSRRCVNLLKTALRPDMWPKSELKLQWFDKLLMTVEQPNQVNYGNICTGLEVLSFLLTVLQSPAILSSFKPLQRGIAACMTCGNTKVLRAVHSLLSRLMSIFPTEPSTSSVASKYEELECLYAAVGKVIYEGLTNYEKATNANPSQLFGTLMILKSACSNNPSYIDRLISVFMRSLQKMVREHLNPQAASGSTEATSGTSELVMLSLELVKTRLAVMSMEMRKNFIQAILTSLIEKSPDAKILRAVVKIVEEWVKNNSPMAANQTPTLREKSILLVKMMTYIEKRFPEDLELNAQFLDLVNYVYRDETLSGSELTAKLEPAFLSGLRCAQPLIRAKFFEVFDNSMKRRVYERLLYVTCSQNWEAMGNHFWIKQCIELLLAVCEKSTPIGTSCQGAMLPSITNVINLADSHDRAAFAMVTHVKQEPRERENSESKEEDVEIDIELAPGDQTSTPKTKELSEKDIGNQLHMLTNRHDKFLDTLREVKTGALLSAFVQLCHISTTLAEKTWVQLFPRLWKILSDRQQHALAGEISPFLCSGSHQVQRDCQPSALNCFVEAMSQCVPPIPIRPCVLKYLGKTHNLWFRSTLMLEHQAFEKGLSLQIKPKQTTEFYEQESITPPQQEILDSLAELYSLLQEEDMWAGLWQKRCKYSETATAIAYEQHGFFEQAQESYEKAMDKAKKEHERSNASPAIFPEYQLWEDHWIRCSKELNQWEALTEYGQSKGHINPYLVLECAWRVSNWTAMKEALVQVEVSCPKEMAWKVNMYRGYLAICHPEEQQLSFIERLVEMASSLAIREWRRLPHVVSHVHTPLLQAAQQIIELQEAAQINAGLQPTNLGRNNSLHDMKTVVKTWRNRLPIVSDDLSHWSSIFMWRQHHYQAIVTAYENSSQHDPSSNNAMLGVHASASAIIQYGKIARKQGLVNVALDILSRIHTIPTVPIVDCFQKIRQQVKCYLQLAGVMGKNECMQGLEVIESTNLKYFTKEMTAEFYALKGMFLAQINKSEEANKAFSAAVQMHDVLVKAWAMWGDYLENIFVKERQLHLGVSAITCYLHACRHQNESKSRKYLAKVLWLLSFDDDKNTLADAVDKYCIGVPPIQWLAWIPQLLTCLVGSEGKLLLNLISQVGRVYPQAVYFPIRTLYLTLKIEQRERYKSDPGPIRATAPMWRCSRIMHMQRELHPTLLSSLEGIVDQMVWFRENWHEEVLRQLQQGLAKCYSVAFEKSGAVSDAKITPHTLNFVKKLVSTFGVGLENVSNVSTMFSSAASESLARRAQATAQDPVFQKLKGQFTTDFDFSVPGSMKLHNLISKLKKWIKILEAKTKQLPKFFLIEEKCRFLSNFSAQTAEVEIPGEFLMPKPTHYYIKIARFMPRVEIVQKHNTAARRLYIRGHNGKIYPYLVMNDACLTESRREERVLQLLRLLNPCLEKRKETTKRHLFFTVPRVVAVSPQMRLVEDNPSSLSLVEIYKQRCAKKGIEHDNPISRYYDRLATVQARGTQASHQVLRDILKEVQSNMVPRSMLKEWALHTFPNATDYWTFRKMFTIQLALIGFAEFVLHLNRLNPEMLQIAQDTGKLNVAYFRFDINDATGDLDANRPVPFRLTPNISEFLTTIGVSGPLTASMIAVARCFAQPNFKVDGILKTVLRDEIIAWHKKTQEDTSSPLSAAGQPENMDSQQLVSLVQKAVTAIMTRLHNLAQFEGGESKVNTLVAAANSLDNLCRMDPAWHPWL

| Structure (SMILES) | % Inhibition 10 uM (MYC:TRRAP interaction; [2]) [%] | other results |
| --- | --- | --- |
| COc1cc(C=C2S/C(=N/Nc3nc(-c4ccc(Br)cc4)cs3)N=C2O)cc(OC)c1OC (stereo in doubt) [Compound 10N, (2E,5Z)-2-[[4-(4-bromophenyl)-1,3-thiazol-2-yl] hydrazinylidene]-5-[(3,4,5-trimethoxy-phenyl)methylidene]-1,3-thiazolidin-4-one] | 88.1 | inhibition of the endogenous MYC:TRRAP interaction ([1]; FIG. 24): do not inhibit the endogenous MYC:TRRAP interaction; inhibition of MYC:TRRAP complex formation [1]: 20% |
| Oc1[nH]c2ccccc2c1/N=N/c1nc(-c2ccc(Br)cc2)cs1 [Compound 10, 3-[[4-(4-bromophenyl)-1,3-thiazol-2-yl]diazenyl]-1H-indol-2-ol] | 73.56 | inhibitory activity on immunoprecipitation of TRRAP normalized to MYC ([1]; 25 μM, top 17 hits, in cells or in vitro, FIG. 23A-23B): greatest inhibitory activity; inhibition of MYC:TRRAP complex formation [1]: 70%; % Inhibition 10 uM (MYC:TRRAP interaction; Table 1, 46 primary hits at 10 uM, HeLa cells, triplicate measurements): 58.98%; inhibition of MYC:TRRAP binding (MYC:TRRAP interaction; most consistent inhibition in multiple assays): ~ 50% |
| N=C(S)/N=N/c1c(O)[nH]c2cccc(C(F)(F)F)c12 [Compound 1015, [2-hydroxy-4-(trifluoro-methyl)-1H-indol-3-yl]iminothiourea] | 82.44 |  |
| O=C1CSC(/N=N/c2c(O)[nH]c3ccccc23)=N1 [Compound 1016, 2-[(2-hydroxy-1H-indol-3-yl)diazenyl]-1,3-thiazol-4-one] | 104.5 |  |
| N#CC(=N)/C(C#N)=N/c1c(O)[nH]c2ccccc12 [Compound 1017, N′-(2-hydroxy-1H-indol-3-yl)ethane-diimidoyl dicyanide] | 89.13 |  |
| C=CC/N=C(S)/N=N/c1c(O)[nH]c2ccccc12 [Compound 1018] | 77.04 |  |
| O=C(/N=N/c1c(O)[nH]c2ccccc12)C(F)(F)F [Compound 1019, 2,2,2-trifluoro-N-[(2-hydroxy-1H-indol-3-yl)imino] acetamide] | 82.34 |  |
| Oc1[nH]c2ccccc2c1/N=N/C1=NCCN1 [Compound 1020, 3-(4,5-dihydro-1H-imidazol-2-yldiazenyl)-1H-indol-2-ol] | 91.72 |  |
| Nn1c(S)nnc1/N=N/c1c(O)[nH]c2ccccc12 [Compound 1021, 4-amino-3-[(2-hydroxy-1H-indol-3-yl)diazenyl]-1H-1,2,4-triazole-5-thione] | 71.88 |  |
| O=[N+]([O-])c1cccc(-c2csc(/N=N/c3c(O)[nH]c4ccccc34)n2)c1 [Compound 1022, 3-[[4-(3-nitrophenyl)-1,3-thiazol-2-yl]diazenyl]-1H-indol-2-ol] | 54.58 |  |
| O=[N+]([O-])c1ccc(-c2csc(N=Nc3c(O)[nH]c4ccccc34)n2)cc1 [Compound 1023, 3-[[4-(4-nitrophenyl)-1,3-thiazol-2-yl]diazenyl]-1H-indol-2-ol] | 47.93 |  |
| Oc1[nH]c2ccccc2c1/N=N/c1nc(-c2ccc(Cl)c(Cl)c2)cs1 [Compound 1025, 3-[[4-(3,4-dichlorophenyl)-1,3-thiazol-2-yl]diazenyl]-1H-indol-2-ol] | 53.24 |  |
| CCOC(=O)Cc1csc(/N=N/c2c(O)[nH]c3ccccc23)n1 [Compound 1026, ethyl 2-[2-[(2-hydroxy-1H-indol-3-yl)diazenyl]-1,3-thiazol-4-yl] acetate] | 59.51 |  |
| Cc1sc(/N=N/c2c(O)[nH]c3ccccc23)nc1-c1ccccc1 [Compound 1027, 3-[(5-methyl-4-phenyl-1,3-thiazol-2-yl)diazenyl]-1H-indol-2-ol] | 50.66 |  |
| O=C(Cc1csc(/N=N/c2c(O)[nH]c3ccccc23)n1)Nc1ccccc1 [Compound 1028, 2-[2-[(2-hydroxy-1H-indol-3-yl)diazenyl]-1,3-thiazol-4-y]-N-phenylacetamide] | 97.46 |  |
| Cc1ccccc1NC(=O)Cc1csc(/N=N/c2c(O)[nH]c3ccccc23)n1 [Compound 1029] | 98.07 |  |
| CCCNC(=S)N=Nc1c(O)[nH]c2ccccc12 [Compound 1032, 1-[(2-hydroxy-1H-indol-3-yl)imino]-3-propylthiourea] | 88.62 |  |
| Oc1[nH]c2ccccc2c1/N=N/C(=S)N1CCCC1 [Compound 1033, N-((2-hydroxy-1H-indol-3-yl)imino] pyrrolidine-1-carbothioamide] | 86.96 |  |
| Cc1ccccc1/N=C(S)/N=N/c1c(O)[nH]c2ccccc12 [Compound 1034, 1-[(2-hydroxy-1H-indol-3-yl)imino]-3-(2-methylphenyl) thiourea] | 111.9 |  |
| Cc1cccc(/N=C(S)/N=N/c2c(O)[nH]c3ccccc23)c1 [Compound 1035, 1-[(2-hydroxy-1H-indol-3-yl)imino]-3-(3-methylphenyl) thiourea] | 82.12 |  |
| Cc1ccc(/N=C(S)/N=N/c2c(O)[nH]c3ccccc23)cc1 [Compound 1036] | 86.98 |  |
| Oc1[nH]c2ccccc2c1/N=N/C1=NCCCCN1 [Compound 1037, 3-(4,5,6,7-tetrahydro-1H-1,3-diazepin-2-yldiazenyl)-1H-indol-2-ol; hydroiodide] | 85.49 |  |
| O=C(Cc1ccccc1)/N=N/c1c(O)[nH]c2ccccc12 [Compound 1038, N-((2-hydroxy-1H-indol-3-yl)imino]-2-phenylacetamide] | 86.67 |  |
| c1ccc2c(c1)=NOc1[nH]c3ccccc3c1N=2 [Compound 1039, 5H-indolo[2,3-c][2,1,5]ben-zoxadiazepine] | 59.84 |  |
